Data published in US5420335A, “Parenteral nutrients based on watersoluble glycerol bisacetoacetates” (priority 1993, dated 1995).
“And” between values parts separate entries of the source, which are not always exact repeats. Identical values can stand only once. “Also recorded” adds a separate entry of the source.

Key:
Format in all cases: in vivo, rat (male Sprague-Dawley)
[1] = Daily urinary nitrogen losses of intravenously infused rats; details: Table 2, Example 2
Protocol: (§1) Water was available ad libitum at all times.
(§2) The vein was then ligated dorsally to the catheter. […] Body weights were measured daily.
(§3) Infusate volume, oral food intake, body weight and urinary volume and total nitrogen were monitored daily for each rat. Infusate volume and food intake were determined by weighing the appropriate container at the start and end of each 24 hr. period. Measurements were recorded between 9 and 10 AM each day. At the end of the 7th day, rats were sacrificed, and blood and liver were harvested. Plasma was separated for measurement of free fatty acids, glucose, and ketone bodies. Liver was weighed and a sample was fixed in buffered formalin for gross histology.
The data were analyzed for significance by the one-way analysis of variance with repeated measures and comparing the effect of dietary treatment on each day. […] The null hypothesis was concluded invalid if p≤0.05. The analysis of variance was computed on a SAS statistical package. […]

[2] = Nitrogen balance (difference between intake and urinary output); details: for nitrogen balance: 7 days; for Nitrogen Balance, Difference Between Intake and Output: Table 3, Example 2
Protocol: as §1, §2, §3
(§4) The data were analyzed for significance by the one-way analysis of variance with repeated measures and comparing the effect of dietary treatment on each day. […] The null hypothesis was concluded invalid if p≤0.05. The analysis of variance was computed on a SAS statistical package.
FIG. 3 illustrates the difference between oral intake and urinary nitrogen output which is termed nitrogen balance. It is representative of nitrogen balance because urinary nitrogen is the major route for body loss of nitrogen.
The experimental compound contains 8% nitrogen. With an infusion of 5.6 grams/day, infused nitrogen would provide approximately 450 mg more than that listed in the data tables. The final balance figures includes this number which is calculated based on the actual daily infusion rate for each rat.

[3] = Daily body weight of intravenously infused rats; details: for Daily Body Weight: Table 4, Example 2
Protocol: as §1, §2, §3, §4
This compound has an estimated energy density of 4.86 kcal/gram based on thermodynamic data from similar compounds.

[4] = day 3, individual rat, listed as BISACETOACETYLGLYCEROL
[5] = day 4, individual rat, listed as BISACETOACETYLGLYCEROL
[6] = day 5, individual rat, listed as BISACETOACETYLGLYCEROL
[7] = day 6, individual rat, listed as BISACETOACETYLGLYCEROL
[8] = day 7, individual rat, listed as BISACETOACETYLGLYCEROL
[9] = day 1, individual rat, listed as BISACETOACETYLGLYCEROL
[10] = day 2, individual rat, listed as BISACETOACETYLGLYCEROL

Substance: Glycerol bis-acetoacetate [Compound 1]
- Urinary Nitrogen ([1]; day 3, average of 7 rats): 137 mg
- Urinary Nitrogen [1, 4]: 181.94 mg and 142.42 mg and 62.97 mg and 164.52 mg and 162.29 mg and 140.13 mg and 104.72 mg
- Urinary Nitrogen ([1]; day 4, average of 7 rats): 173 mg
- Urinary Nitrogen [1, 5]: 294.68 mg and 253.62 mg and 47.06 mg and 193.72 mg and 139.67 mg and 115.59 mg and 168.33 mg
- Urinary Nitrogen ([1]; day 5, average of 7 rats): 215 mg
- Urinary Nitrogen [1, 6]: 289.81 mg and 303.16 mg and 254.66 mg and 144.16 mg and 274.72 mg and 97.81 mg and 142.32 mg
- Urinary Nitrogen ([1]; day 6, average of 7 rats): 195 mg
- Urinary Nitrogen [1, 7]: 283.02 mg and 191.83 mg and 11.17 mg and 134.85 mg and 378.79 mg and 184.37 mg and 179.01 mg
- Urinary Nitrogen ([1]; day 7, average of 7 rats): 219 mg
- Urinary Nitrogen [1, 8]: 381.14 mg and 194.98 mg and 152.92 mg and 192.67 mg and 269.64 mg and 203.37 mg and 138.8 mg
- nitrogen balance ([2]; Example 2): around +200 mg/day
- Nitrogen Balance, Difference Between Intake and Output ([2]; day 1, average of 7 rats): 50 MG N
- Nitrogen Balance, Difference Between Intake and Output [2, 9]: 2.23 MG N and -125.18 MG N and -49.12 MG N and 488.57 MG N and 67.86 MG N and -8.55 MG N and -26.62 MG N
- Nitrogen Balance, Difference Between Intake and Output ([2]; day 2, average of 7 rats): 141 MG N
- Nitrogen Balance, Difference Between Intake and Output [2, 10]: 26.38 MG N and 170.06 MG N and 345.48 MG N and 260.22 MG N and 157.23 MG N and 36.89 MG N
- Nitrogen Balance, Difference Between Intake and Output ([2]; day 3, average of 7 rats): 271 MG N
- Nitrogen Balance, Difference Between Intake and Output [2, 4]: 120.74 MG N and 489.26 MG N and 42.31 MG N and 282.92 MG N and 469.39 MG N and 333.63 MG N and 158.48 MG N
- Nitrogen Balance, Difference Between Intake and Output ([2]; day 4, average of 7 rats): 281 MG N
- Nitrogen Balance, Difference Between Intake and Output [2, 5]: 376.48 MG N and 384.64 MG N and 31.9 MG N and 385.32 MG N and 274.87 MG N and 292.37 MG N and 219.89 MG N
- Nitrogen Balance, Difference Between Intake and Output ([2]; day 5, average of 7 rats): 204 MG N
- Nitrogen Balance, Difference Between Intake and Output [2, 6]: 269.49 MG N and 269.3 MG N and -24.36 MG N and 244.06 MG N and 343.8 MG N and 171.97 MG N and 153.78 MG N
- Nitrogen Balance, Difference Between Intake and Output ([2]; day 6, average of 7 rats): 166 MG N
- Nitrogen Balance, Difference Between Intake and Output [2, 7]: 256.54 MG N and 38.47 MG N and 48.05 MG N and 240.21 MG N and 246.31 MG N and 230.17 MG N and 103.93 MG N
- Nitrogen Balance, Difference Between Intake and Output ([2]; day 7, average of 7 rats): 170 MG N
- Nitrogen Balance, Difference Between Intake and Output [2, 8]: 184.74 MG N and 68.22 MG N and -1.58 MG N and 228.45 MG N and 375.2 MG N and 270.39 MG N and 65.18 MG N
- nitrogen balance ([2]; in words): positive nitrogen balances; also recorded: better growth and nitrogen retention
- Daily Body Weight ([3]; day 0, average of 7 rats): 262 Grams
- Daily Body Weight ([3]; day 0, individual rat, listed as BISACETOACETYLGLYCEROL): 282 Grams and 278 Grams and 233 Grams and 283 Grams and 268 Grams and 244 Grams
- Daily Body Weight ([3]; day 1, average of 7 rats): 268 Grams
- Daily Body Weight [3, 9]: 311 Grams and 290 Grams and 230 Grams and 284 Grams and 268 Grams and 249 Grams and 241 Grams
- Daily Body Weight ([3]; day 2, average of 7 rats): 268 Grams
- Daily Body Weight [3, 10]: 273 Grams and 289 Grams and 232 Grams and 297 Grams and 279 Grams and 249 Grams and 256 Grams
- Daily Body Weight ([3]; day 3, average of 7 rats): 273 Grams
- Daily Body Weight [3, 4]: 278 Grams and 286 Grams and 258 Grams and 292 Grams and 256 Grams and 263 Grams
- Daily Body Weight ([3]; day 4, average of 7 rats): 271 Grams
- Daily Body Weight [3, 5]: 265 Grams and 284 Grams and 226 Grams and 302 Grams and 280 Grams and 262 Grams and 276 Grams
- Daily Body Weight ([3]; day 5, average of 7 rats): 276 Grams
- Daily Body Weight [3, 6]: 261 Grams and 276 Grams and 234 Grams and 306 Grams and 285 Grams and 293 Grams and 277 Grams
- Daily Body Weight ([3]; day 6, average of 7 rats): 269 Grams
- Daily Body Weight [3, 7]: 253 Grams and 261 Grams and 252 Grams and 310 Grams and 281 Grams and 269 Grams and 260 Grams
- Daily Body Weight ([3]; day 7, average of 7 rats): 266 Grams
- Daily Body Weight [3, 8]: 249 Grams and 261 Grams and 253 Grams and 307 Grams and 276 Grams and 273 Grams and 245 Grams
- change in body weight ([3]; in words, 7 days): gained weight; also recorded: body weight changes which were consistent with nitrogen balance data; also recorded: better growth
